Read-outs that look alike come from different tables or passages of the source.
Columns and labels:
Rat hearts = test: Cardiac activity: rat hearts perfused by the Langendorff procedure
Procedure: Rat hearts were perfused by the Langendorff procedure.
Hearts were dissected free within 30 seconds of death and reverse perfused via the aorta and coronary vessels with Krebs-Ringer bicarbonate solution (pH 7.4, 37° C.) gassed with 95% oxygen: 5% carbon dioxide at a flow rate between 8-12 cm^3 /minute. Responses were observed after injection of drug dissolved in isotonic saline into the perfusion media.
Results are expressed as a percentage of the maximum response due to salbutamol.

Female CFLP mice [1] = test: Hypoglycaemic activity: blood glucose of fasted mice after subcutaneous glucose; type: in vivo; settings: Mus musculus, read-out: REDUCTION IN AREA UNDER BLOOD GLUCOSE CURVE (%); for inhibition in vivo at 1 µmol/kg: 1.0 μ mol/kg oral
Procedure: Female CFLP mice, weighing approximately 25 g, were fasted for 24 hours prior to the study. The compounds under study were administered orally as an aqueous solution to each of 8 mice. 30 minutes later a blood sample ([…]) was obtained from the tail for the analysis of blood glucose. Immediately after taking this blood sample, glucose (1 g/kg body weight) was administered subcutaneously to each mouse. 8 mice were given water as a control. Blood samples were then obtained from each mouse at 30 minute intervals for 120 minutes.
Compounds that produced a significant (P<0.05) reduction on blood glucose, compared with control mice given water, at any time interval, were considered active. The area under the blood glucose curve over the 2 hour period after the administration of the glucose was calculated for each compound and compared with the value for control animals.

Female CFLP mice [2] = test: Effect on energy expenditure and food intake of mice; type: in vivo; settings: Mus musculus, % of mice dosed with water; for response vs control in vivo at 5.7 mg/kg: 5.7 mg/kg po; for response vs control in vivo at 20.2 mg/kg: 20.2 mg/kg po; for response vs control in vivo at 22.1 mg/kg: 22.1 mg/kg po; for response vs control in vivo at 22.9 mg/kg: 22.9 mg/kg po; for response vs control in vivo at 23.3 mg/kg: 23.3 mg/kg po; for response vs control in vivo at 20.3 mg/kg: 20.3 mg/kg po; for response vs control in vivo at 24.9 mg/kg: 24.9 mg/kg po; for response vs control in vivo at 20 mg/kg: 20.0 mg/kg po; for response vs control in vivo at 19.1 mg/kg: 19.1 mg/kg po
Procedure: Female CFLP mice each weighing approximately 24 g were given food and water ad lib before and during the experiment. The compounds were dissolved in water by addition of one mole of hydrochloric acid per mole of compound and these solutions were administered orally to each of 12 mice. A further 12 mice were dosed orally with water. The mice were placed in boxes through which air was drawn and the oxygen content of the air leaving the boxes was measured. The energy expenditure of the mice was calculated for 21 hours after dosing from the volume of air leaving the boxes and its oxygen content following the principles described by J. B. de V. Weir, J. Physiol. […] The food intake of the mice was measured over this same period of 21 hours. The results are expressed as a percentage of the mean food intake or rate of energy expenditure of the mice dosed with water.

[3] = tested on: Platelet aggregation (response to collagen); test: Platelet aggregation inhibition activity: response to intravenous collagen in mice; type: in vivo; settings: two hours before collagen 400 μg/kg i.v.
Procedure: Male CFLP mice (ca 20 g, n=8) were dosed orally with compound or vehicle (controls) after an overnight fast. Two hours later each mouse received an intravenous dose of collagen (400 μg/kg, pH 6-6.6). Exactly 30 sec. after injection of collagen, each mouse was placed in a chamber of CO2 until respiration ceased. […] Each concentration was expressed as a percent of that obtained in a tail blood sample taken immediately before injection of collagen.

[4] = 30 μg added to perfusate, percentage of the maximum response due to salbutamol, read-out: HEART RATE
[5] = 30 μg added to perfusate, percentage of the maximum response due to salbutamol, read-out: HEART TENSION
[6] = 2 hour period after glucose, vs control mice given water
[7] = 0-3h, read-out: MEAN ENERGY EXPENDITURE (%) 0-3h
[8] = 0-21h, read-out: MEAN ENERGY EXPENDITURE (%) 0-21h
[9] = over 21 hours, read-out: MEAN FOOD INTAKE (%)
[10] = 2.5 μ mol/kg oral, 2 hour period after glucose, vs control mice given water

SMILES: C[C@H](Cc1ccc(OCCCCO)cc1)NC[C@H](O)c1cccc(C(F)(F)F)c1 [Example 13, N-[2-{4-(4-Hydroxybutoxy)phenyl}-1-(R)-1-methylethyl]-2-(R)-2-hydroxy-2-(3-trifluoromethylphenyl)ethanamine]
- Emax (Rat hearts; [4]): 17%
- Emax (Rat hearts; [5]): 47%
- inhibition in vivo at 1 µmol/kg (Female CFLP mice [1]; [6]): 37%
- response vs control in vivo at 5.7 mg/kg (Female CFLP mice [2]; [7]): 134%
- response vs control in vivo at 5.7 mg/kg (Female CFLP mice [2]; [8]): 116%
- response vs control in vivo at 5.7 mg/kg (Female CFLP mice [2]; [9]): 93%

SMILES: COc1ccc(C(O)CNC(C)Cc2ccc(OCCO)cc2)cc1F (centres unmarked) [Example 8, N-[2-(4-(2-Hydroxyethoxy)phenyl)-1-methylethyl]-2-hydroxy-2-(3-fluoro-4-methoxyphenyl)-ethanamine]
- Emax (Rat hearts; [4]): 13%
- Emax (Rat hearts; [5]): 13%
- inhibition in vivo at 12.5 µmol/kg (Female CFLP mice [1]; 12.5 μ mol/kg oral, 2 hour period after glucose, vs control mice given water): 21%
- response vs control in vivo at 20.2 mg/kg (Female CFLP mice [2]; [7]): 138%
- response vs control in vivo at 20.2 mg/kg (Female CFLP mice [2]; [8]): 96%
- response vs control in vivo at 20.2 mg/kg (Female CFLP mice [2]; [9]): 86%

SMILES: Cc1cc(CC(C)NCC(O)c2cccc(C(F)(F)F)c2)ccc1OCCO (centres unmarked) [Example 11, N-[2-{4-(2-Hydroxyethoxy)-3-methylphenyl}-1-methylethyl]-2-hydroxy-2-(3-trifluoromethylphenyl)ethanamine]
- inhibition in vivo at 1 µmol/kg (Female CFLP mice [1]; [6]): 31%
- response vs control in vivo at 22.1 mg/kg (Female CFLP mice [2]; [7]): 136%
- response vs control in vivo at 22.1 mg/kg (Female CFLP mice [2]; [8]): 113%
- response vs control in vivo at 22.1 mg/kg (Female CFLP mice [2]; [9]): 115%

SMILES: CC(Cc1ccc(OCCCCO)cc1)NCC(O)c1cccc(C(F)(F)F)c1 (centres unmarked) [Example 2, N-[2-(4-(4-hydroxybutoxy)phenyl)-1-methylethyl]-2-hydroxy-2-(3-trifluoromethylphenyl)ethanamine]
- % INHIBITION OF RESPONSE TO COLLAGEN ([3]; 1 μ mol/kg po): 26%
- Emax (Rat hearts; [5]): 22%
- Emax (Rat hearts; read-out: HEART RATE): 0%
- inhibition in vivo at 2.4 µmol/kg (Female CFLP mice [1]; 2.4 μ mol/kg oral, 2 hour period after glucose, vs control mice given water): 57%
- response vs control in vivo at 22.9 mg/kg (Female CFLP mice [2]; [7]): 168%
- response vs control in vivo at 22.9 mg/kg (Female CFLP mice [2]; [8]): 135%
- response vs control in vivo at 22.9 mg/kg (Female CFLP mice [2]; [9]): 89%

SMILES: CC(Cc1ccc(OCCCCCCCCCCCO)cc1)NCC(O)c1cccc(C(F)(F)F)c1 (centres unmarked) [Example 6, N-[2-(4-(11-Hydroxyundecyloxy)phenyl)1-methylethyl]-2-hydroxy-2-(3-trifluoromethylphenyl)-ethanamine]
- Emax (Rat hearts; [4]): 0%
- Emax (Rat hearts; [5]): 36%
- inhibition in vivo at 2.5 µmol/kg (Female CFLP mice [1]; [10]): 24%
- response vs control in vivo at 23.3 mg/kg (Female CFLP mice [2]; [7]): 132%
- response vs control in vivo at 23.3 mg/kg (Female CFLP mice [2]; [8]): 101%
- response vs control in vivo at 23.3 mg/kg (Female CFLP mice [2]; [9]): 99%

SMILES: CC(C)(C)NCC(O)c1ccc(O)c(CO)c1 (centres unmarked) [Salbutamol, reference compound]
- Emax (Rat hearts; salbutamol maximum response (reference), dose not stated, read-out: HEART RATE): 100%
- Emax (Rat hearts; salbutamol maximum response (reference), dose not stated, read-out: HEART TENSION): 100%

SMILES: CC(CCc1ccc(OCCO)cc1)NCC(O)c1cccc(Cl)c1 (centres unmarked) [Example 10, N-[3-(4-(2-Hydroxyethoxy)phenyl)-1-methylpropyl]-2-hydroxy-2-(3-chlorophenyl)ethanamine]
- inhibition in vivo at 2.5 µmol/kg (Female CFLP mice [1]; [10]): 23%
- response vs control in vivo at 20.3 mg/kg (Female CFLP mice [2]; [7]): 159%
- response vs control in vivo at 20.3 mg/kg (Female CFLP mice [2]; [8]): 114%
- response vs control in vivo at 20.3 mg/kg (Female CFLP mice [2]; [9]): 88%

SMILES: CC(Cc1ccc(OC(C)(C)CO)cc1)NCC(O)c1cccc(C(F)(F)F)c1 (centres unmarked) [Example 7, N-[2-(4-(1,1-Dimethyl-2-hydroxyethoxy)phenyl)-1-methylethyl]-2-hydroxy-2-(3-trifluoromethylphenyl)-ethanamine]
- Emax (Rat hearts; [4]): 46%
- Emax (Rat hearts; [5]): 29%
- inhibition in vivo at 2.5 µmol/kg (Female CFLP mice [1]; po, 2 h): 45%
- response vs control in vivo at 24.9 mg/kg (Female CFLP mice [2]; [7]): 145%
- response vs control in vivo at 24.9 mg/kg (Female CFLP mice [2]; [8]): 118%
- response vs control in vivo at 24.9 mg/kg (Female CFLP mice [2]; [9]): 116%

SMILES: CC(=O)Oc1ccccc1C(=O)O [Aspirin, reference compound]
- % INHIBITION OF RESPONSE TO COLLAGEN ([3]; 600 μ mol/kg po): 47%

SMILES: CC(Cc1ccc(OCCO)cc1)NCC(O)c1cccc(C(F)(F)F)c1 (centres unmarked) [Example 3, N-[2-(4-(2-Hydroxyethoxy)-phenyl)-1-methylethyl]-2-hydroxy-2-(3-trifluoromethylphenyl)ethanamine]
- % INHIBITION OF RESPONSE TO COLLAGEN ([3]; 1 μ mol/kg po): 47%
- Emax (Rat hearts; [4]): 17%
- Emax (Rat hearts; [5]): 50%
- inhibition in vivo at 2.5 µmol/kg (Female CFLP mice [1]; [10]): 52%
- response vs control in vivo at 20 mg/kg (Female CFLP mice [2]; [7]): 178%
- response vs control in vivo at 20 mg/kg (Female CFLP mice [2]; [8]): 134%
- response vs control in vivo at 20 mg/kg (Female CFLP mice [2]; [9]): 82%

SMILES: CC(C)(CCc1ccc(OCCO)cc1)NCC(O)c1ccccc1 (centres unmarked) [Example 9, N-[3-[4-(2-Hydroxyethoxy)phenyl]-1,1-dimethylpropyl]-2-hydroxy-2-phenylethanamine]
- inhibition in vivo at 50 µmol/kg (Female CFLP mice [1]; 50.0 μ mol/kg oral, 2 hour period after glucose, vs control mice given water): 55%
- response vs control in vivo at 19.1 mg/kg (Female CFLP mice [2]; [7]): 102%
- response vs control in vivo at 19.1 mg/kg (Female CFLP mice [2]; [8]): 98%
- response vs control in vivo at 19.1 mg/kg (Female CFLP mice [2]; [9]): 91%

Source: patent US4382958A, “Secondary amines and compositions for treatment of hypoglycaemia or obesity” (priority 1980, dated 1983)
